Laboratory results taken from patent US11180462B2, “Microbiocidal oxadiazole derivatives” (SYNGENTA PARTICIPATIONS AG, priority 2015, dated 2021).

Columns and labels:
[1] = tested on: Puccinia recondita f. Sp. Tritici; experiment: Fungicidal activity against Puccinia recondita f. sp. tritici / wheat / leaf disc curative (brown rust); assay type: in vivo; conditions: foliar, 24 h, 200 ppm in the applied formulation, wheat leaf segments, curative (applied 1 day after inoculation), compared to untreated control leaf disks, read-out: disease control
Procedure, shortened: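 Wheat cv. Kanzler leaf segments on agar, inoculated with rust spore suspension, kept dark at 19° C and 75% RH; formulated compound sprayed 1 day post-inoculation. Incubated 19° C, 75% RH, 12 h light/12 h dark; percent disease control vs untreated scored 6 to 8 days after application.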

[2] = tested on: Glomerella lagenarium (Colletotrichum lagenarium); experiment: Fungicidal activity against Glomerella lagenarium (Colletotrichum lagenarium) liquid culture / cucumber / preventative (anthracnose); assay type: cell-based; conditions: Colletotrichum orbiculare; 20 ppm in the applied formulation; liquid culture (PDB), growth inhibition measured photometrically after 3 to 4 days; compared to untreated control; read-out: disease control
Procedure, shortened: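 Percent activity against the untreated check was derived from photometric growth measurements made 2 to 7 days after conidia in potato dextrose broth were combined with compound at 20 ppm. Cultures were kept dark at 24 °C and 96% humidity.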

[3] = tested on: Puccinia recondita f. Sp. Tritici; experiment: Fungicidal activity against Puccinia recondita f. sp. tritici / wheat / leaf disc preventative (brown rust); assay type: in vivo; conditions: foliar, 200 ppm in the applied formulation, wheat leaf segments, preventative, compared to untreated control leaf disks, read-out: disease control
Procedure, shortened: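 Percent disease control relative to untreated check segments is scored once disease develops, 7 to 9 days after application. Wheat cv. Kanzler segments receive compound spray (200 ppm in formulation) one day before spore inoculation, then sit at 19° C. and 75% rh under 12 h light/12 h dark.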

[4] = tested on: Phakopsora Pachyrhizi; experiment: Fungicidal activity against Phakopsora pachyrhizi / soybean / leaf disc preventative (Asian soybean rust); assay type: in vivo; conditions: foliar, 200 ppm in the applied formulation, soybean leaf disks, compared to untreated control leaf disks, read-out: disease control
Procedure, shortened: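 Scored 12 to 14 days post-application as percent control relative to untreated check discs, rust spores were sprayed under the disc one day after compound treatment. Incubation: 20°C, 75% rh, first 24–36 h in darkness, then 12 h daily light; discs kept on water agar.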

CC(=O)CC(C)C(=O)N(Cc1ccc(-c2noc(C(F)(F)F)n2)cc1)C1CC1 (stereo not drawn) [Compound 1.95, N-cyclopropyl-2-methyl-4-oxo-N-[[4-[5-(trifluoromethyl)-1,2,4-oxadiazol-3-yl]phenyl]methyl]-pentanamide]
≥ 80%: pest or weed control at 200 ppm [1] | inhibition of growth at 20 ppm [2] | pest or weed control at 200 ppm [3] | pest or weed control at 200 ppm [4]

C#CCN(Cc1ccc(-c2noc(C(F)(F)F)n2)cc1)C(=O)CC [Compound 1.185, N-prop-2-ynyl-N-[[4-[5-(trifluoromethyl)-1,2,4-oxadiazol-3-yl]phenyl]methyl]-propanamide]
≥ 80%: pest or weed control at 200 ppm [1] | inhibition of growth at 20 ppm [2] | pest or weed control at 200 ppm [3] | pest or weed control at 200 ppm [4]

C#CCN(Cc1ccc(-c2noc(C(F)(F)F)n2)cc1)C(=O)Cc1cccnc1 [Compound 1.170, N-prop-2-ynyl-2-(3-pyridyl)-N-[[4-[5-(trifluoromethyl)-1,2,4-oxadiazol-3-yl]phenyl]methyl]-acetamide]
≥ 80%: pest or weed control at 200 ppm [1] | inhibition of growth at 20 ppm [2] | pest or weed control at 200 ppm [3] | pest or weed control at 200 ppm [4]

CCC(COC)C(=O)N(Cc1ccc(-c2noc(C(F)(F)F)n2)cc1)C(C)C (stereo not drawn) [Compound 1.680, N-isopropyl-2-(methoxymethyl)-N-[[4-[5-(trifluoromethyl)-1,2,4-oxadiazol-3-yl]phenyl]methyl]-butanamide]
≥ 80%: pest or weed control at 200 ppm [1] | inhibition of growth at 20 ppm [2] | pest or weed control at 200 ppm [3] | pest or weed control at 200 ppm [4]

COCCN(Cc1ccc(-c2noc(C(F)(F)F)n2)cc1)C(=O)C1(C)CC1 [Compound 1.344, N-(2-methoxyethyl)-1-methyl-N-[[4-[5-(trifluoromethyl)-1,2,4-oxadiazol-3-yl]phenyl]methyl]-cyclopropane-carboxamide]
≥ 80%: pest or weed control at 200 ppm [1] | inhibition of growth at 20 ppm [2] | pest or weed control at 200 ppm [3] | pest or weed control at 200 ppm [4]

CON(Cc1ccc(-c2noc(C(F)(F)F)n2)cc1)C(=O)C(C)(C)OC [Compound 1.779, N,2-dimethoxy-2-methyl-N-[[4-[5-(trifluoromethyl)-1,2,4-oxadiazol-3-yl]phenyl]methyl]-propanamide]
≥ 80%: pest or weed control at 200 ppm [1] | inhibition of growth at 20 ppm [2] | pest or weed control at 200 ppm [3] | pest or weed control at 200 ppm [4]

CC1(C(=O)N(Cc2ccc(-c3noc(C(F)(F)F)n3)cc2)CC2CC2)CC1 [Compound 1.226, N-(cyclopropylmethyl)-1-methyl-N-[[4-[5-(trifluoromethyl)-1,2,4-oxadiazol-3-yl]phenyl]methyl]-cyctopropane-carboxamide]
≥ 80%: pest or weed control at 200 ppm [1] | inhibition of growth at 20 ppm [2] | pest or weed control at 200 ppm [3] | pest or weed control at 200 ppm [4]

C#CCCC(=O)N(Cc1ccc(-c2noc(C(F)(F)F)n2)cc1)OC [Compound 1.11, N-methoxy-N-[[4-[5-(trifluoromethyl)-1,2,4-oxadiazol-3-yl]phenyl]methyl]-pent-4-ynamide]
≥ 80%: pest or weed control at 200 ppm [1] | inhibition of growth at 20 ppm [2] | pest or weed control at 200 ppm [3] | pest or weed control at 200 ppm [4]

CON(Cc1ccc(-c2noc(C(F)(F)F)n2)cc1)C(=O)C1CCCCC1 [Compound 1.16, N-methoxy-N-[[4-[5-(trifluoromethyl)-1,2,4-oxadiazol-3-yl]phenyl]methyl]-cyclohexane-carboxamide]
≥ 80%: pest or weed control at 200 ppm [1] | inhibition of growth at 20 ppm [2] | pest or weed control at 200 ppm [3] | pest or weed control at 200 ppm [4]

CCC(=O)OCCN(Cc1ccc(-c2noc(C(F)(F)F)n2)cc1)C(=O)CC [Compound 1.590, 2-[propanoyl-[[4-[5-(trifluoromethyl)-1,2,4-oxadiazol-3-yl]phenyl]methyl]-amino]ethyl propanoate]
≥ 80%: pest or weed control at 200 ppm [1] | inhibition of growth at 20 ppm [2] | pest or weed control at 200 ppm [3] | pest or weed control at 200 ppm [4]

CCN(Cc1ccc(-c2noc(C(F)(F)F)n2)cc1)C(=O)C1CCCC1 [Compound 1.495, N-ethyl-N-[[4-[5-(trifluoromethyl)-1,2,4-oxadiazol-3-yl]phenyl]methyl]-cyclopentane-carboxamide]
≥ 80%: pest or weed control at 200 ppm [1] | inhibition of growth at 20 ppm [2] | pest or weed control at 200 ppm [3] | pest or weed control at 200 ppm [4]

O=C(C1CSC1)N(Cc1ccc(-c2noc(C(F)(F)F)n2)cc1)CC1CC1 [Compound 1.216, N-(cyclopropylmethyl)-N-[[4-[5-(trifluoromethyl)-1,2,4-oxadiazol-3-yl]phenyl]methyl]-thietane-3-carboxamide]
≥ 80%: pest or weed control at 200 ppm [1] | inhibition of growth at 20 ppm [2] | pest or weed control at 200 ppm [3] | pest or weed control at 200 ppm [4]

CON(Cc1c(F)cc(-c2noc(C(F)(F)F)n2)cc1F)C(=O)C1CCCO1 (stereo not drawn) [Compound 1.597, N-[[2,6-difluoro-4-[5-(trifluoromethyl)-1,2,4-oxadiazol-3-yl]phenyl]methyl)-N-methoxy-tetrahydrofuran-2-carboxamide]
≥ 80%: pest or weed control at 200 ppm [1] | inhibition of growth at 20 ppm [2] | pest or weed control at 200 ppm [3] | pest or weed control at 200 ppm [4]

C#CCCC(=O)N(Cc1ccc(-c2noc(C(F)(F)F)n2)cc1)C1CC1 [Compound 1.86, N-cyclopropyl-N-[[4-[5-(trifluoromethyl)-1,2,4-oxadiazol-3-yl]phenyl]methyl]-pent-4-ynamide]
≥ 80%: pest or weed control at 200 ppm [1] | inhibition of growth at 20 ppm [2] | pest or weed control at 200 ppm [3] | pest or weed control at 200 ppm [4]

C#CCN(Cc1ccc(-c2noc(C(F)(F)F)n2)cc1)C(=O)C1CCC1 [Compound 1.178, N-prop-2-ynyl-N-[[4-[5-(trifluoromethyl)-1,2,4-oxadiazol-3-yl]phenyl]methyl]-cyclobutane-carboxamide]
≥ 80%: pest or weed control at 200 ppm [1] | inhibition of growth at 20 ppm [2] | pest or weed control at 200 ppm [3] | pest or weed control at 200 ppm [4]

N#Cc1ccc(CC(=O)N(Cc2ccc(-c3noc(C(F)(F)F)n3)cc2)C2CC2)cc1 [Compound 1.130, 2-(4-cyanophenyl)-N-cyclopropyl-N-[[4-[5-(trifluoromethyl)-1,2,4-oxadiazol-3-yl]phenyl]methyl]-acetamide]
≥ 80%: pest or weed control at 200 ppm [1] | inhibition of growth at 20 ppm [2] | pest or weed control at 200 ppm [3] | pest or weed control at 200 ppm [4]

CCN(Cc1ccc(-c2noc(C(F)(F)F)n2)cc1)C(=O)C1CC1C (stereo not drawn) [Compound 1.500, N-ethyl-2-methyl-N-[[4-[5-(trifluoromethyl)-1,2,4-oxadiazol-3-yl]phenyl]methyl]-cyclopropane-carboxamide]
≥ 80%: pest or weed control at 200 ppm [1] | inhibition of growth at 20 ppm [2] | pest or weed control at 200 ppm [3] | pest or weed control at 200 ppm [4]

CON(Cc1ccc(-c2noc(C(F)(F)F)n2)c(F)c1F)C(=O)C1CCCO1 (stereo not drawn) [Compound 1.577, N-[[2,3-difluoro-4-[5-(trifluoromethyl)-1,2,4-oxadiazol-3-yl]phenyl]methyl]-N-methoxy-tetrahydrofuran-2-carboxamide]
≥ 80%: pest or weed control at 200 ppm [1] | inhibition of growth at 20 ppm [2] | pest or weed control at 200 ppm [3] | pest or weed control at 200 ppm [4]
